From patent US11034650B2, “Compounds useful for treating a Mannheimia haemolytica or Histophilus somni infection” (Intervet Inc., priority 2016, dated 2021)
Values after ≈ are worked out from the molar mass of the structure shown.

Assays:
Format in all cases: cell-based
[1] = test system: Mannheimia haemolytica MH 13093 (XB0472-6014.1, BRD field isolate); assay: MIC, broth-microdilution (CLSI VET01-A4), strain MH 13093; conditions: Mannheimia haemolytica strain MH 13093, broth-microdilution; unit assumed
Method in brief: (§1)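 Growth inhibition is scored visually on a doubling dilution series. The reported MIC corresponds to the lowest concentration free of turbidity, with results assessed under CLSI VET01-S3.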

[2] = test system: Pasteurella multocida PM 6267 (P 2225 (L386), reference strain, mouse infection strain); assay: MIC, broth-microdilution (CLSI VET01-A4), strain PM 6267; conditions: Pasteurella multocida strain PM 6267, broth-microdilution; unit assumed
Method in brief: as §1

[3] = test system: Mannheimia haemolytica MH 6374 (ATCC 33396, reference strain); assay: MIC, broth-microdilution (CLSI VET01-A4), strain MH 6374; conditions: Mannheimia haemolytica strain MH 6374, broth-microdilution; unit assumed
Method in brief: as §1

[4] = test system: Mannheimia haemolytica MH 13065 (XB0446-6003.9, BRD field isolate); assay: MIC, broth-microdilution (CLSI VET01-A4), strain MH 13065; conditions: Mannheimia haemolytica strain MH 13065, broth-microdilution; unit assumed
Method in brief: as §1

[5] = test system: Mannheimia haemolytica MH 6357 (M7/2, reference strain, cattle infection strain); assay: MIC, broth-microdilution (CLSI VET01-A4), strain MH 6357; conditions: Mannheimia haemolytica strain MH 6357, broth-microdilution; unit assumed
Method in brief: as §1

[6] = test system: Mannheimia haemolytica MH 10720 (154, BRD field isolate); assay: MIC, broth-microdilution (CLSI VET01-A4), strain MH 10720; conditions: Mannheimia haemolytica strain MH 10720, broth-microdilution; unit assumed
Method in brief: as §1

[7] = test system: Pasteurella multocida PM 12080 (IV102277-0093, BRD field isolate); assay: MIC, broth-microdilution (CLSI VET01-A4), strain PM 12080; conditions: Pasteurella multocida strain PM 12080, broth-microdilution; unit assumed
Method in brief: as §1

[8] = test system: Pasteurella multocida PM 10775 (080130003051, BRD field isolate); assay: MIC, broth-microdilution (CLSI VET01-A4), strain PM 10775; conditions: Pasteurella multocida strain PM 10775, broth-microdilution; unit assumed
Method in brief: as §1

[9] = test system: Pasteurella multocida PM 6391 (ATCC 43137, reference strain); assay: MIC, broth-microdilution (CLSI VET01-A4), strain PM 6391; conditions: Pasteurella multocida strain PM 6391, broth-microdilution; unit assumed
Method in brief: as §1

[10] = test system: Mannheimia haemolytica MH 12587 (1071, BRD field isolate, macrolide-resistance: erm+, E+); assay: MIC, broth-microdilution (CLSI VET01-A4), strain MH 12587; conditions: Mannheimia haemolytica strain MH 12587, broth-microdilution; unit assumed
Method in brief: as §1

CC(C)([C@H](NC(=O)c1ccc(C#Cc2ccc(CNCC(F)(F)F)nc2)cc1)C(=O)NO)S(C)(=O)=O [Compound 355]
MIC MH 13093 [1]: 1.6 µg/mL (≈ 3.04 µM) | MIC PM 6267 [2]: 0.8 µg/mL (≈ 1.52 µM) | MIC MH 6374 [3]: 1.6 µg/mL (≈ 3.04 µM) | MIC MH 13065 [4]: 0.8 µg/mL (≈ 1.52 µM) | MIC MH 6357 [5]: 0.8 µg/mL (≈ 1.52 µM) | MIC MH 10720 [6]: ≤ 0.1 µg/mL | MIC PM 12080 [7]: ≤ 0.1 µg/mL | MIC PM 10775 [8]: ≤ 0.1 µg/mL | MIC PM 6391 [9]: 0.2 µg/mL (≈ 0.38 µM) | MIC MH 12587 [10]: 1.6 µg/mL (≈ 3.04 µM)

COCCCNCc1ccc(C#Cc2ccc(C(=O)N[C@H](C(=O)NO)C(C)C)cc2)cc1 [Compound 205]
MIC MH 13093 [1]: 3.1 µg/mL (≈ 7.09 µM) | MIC PM 6267 [2]: 0.2 µg/mL (≈ 0.457 µM) | MIC MH 6374 [3]: 3.1 µg/mL (≈ 7.09 µM) | MIC MH 13065 [4]: 1.6 µg/mL (≈ 3.66 µM) | MIC MH 6357 [5]: 1.6 µg/mL (≈ 3.66 µM) | MIC MH 10720 [6]: 0.8 µg/mL (≈ 1.83 µM) | MIC PM 12080 [7]: 0.4 µg/mL (≈ 0.914 µM) | MIC PM 10775 [8]: ≤ 0.1 µg/mL | MIC PM 6391 [9]: 0.4 µg/mL (≈ 0.914 µM) | MIC MH 12587 [10]: 6.3 µg/mL (≈ 14.4 µM)

CC[C@H](C)[C@H](NC(=O)c1ccc(C#Cc2ccc(CNC3CCCC3)cc2)cc1)C(=O)NO [Compound 196]
MIC MH 13093 [1]: 12.5 µg/mL (≈ 27.9 µM) | MIC PM 6267 [2]: 0.2 µg/mL (≈ 0.447 µM) | MIC MH 6374 [3]: 12.5 µg/mL (≈ 27.9 µM) | MIC MH 13065 [4]: 6.3 µg/mL (≈ 14.1 µM) | MIC MH 6357 [5]: 6.3 µg/mL (≈ 14.1 µM) | MIC MH 10720 [6]: 1.6 µg/mL (≈ 3.57 µM) | MIC PM 12080 [7]: 0.4 µg/mL (≈ 0.894 µM) | MIC PM 10775 [8]: ≤ 0.1 µg/mL | MIC PM 6391 [9]: 0.8 µg/mL (≈ 1.79 µM) | MIC MH 12587 [10]: 12.5 µg/mL (≈ 27.9 µM)

CSC(C)(C)[C@H](NC(=O)c1ccc(C#Cc2ccc(CNCc3ccccn3)s2)cc1)C(=O)NO [Compound 307]
MIC MH 13093 [1]: 1.6 µg/mL (≈ 3.15 µM) | MIC PM 6267 [2]: 0.8 µg/mL (≈ 1.57 µM) | MIC MH 6374 [3]: 0.8 µg/mL (≈ 1.57 µM) | MIC MH 13065 [4]: 0.8 µg/mL (≈ 1.57 µM) | MIC MH 6357 [5]: 0.8 µg/mL (≈ 1.57 µM) | MIC MH 10720 [6]: ≤ 0.1 µg/mL | MIC PM 12080 [7]: 0.4 µg/mL (≈ 0.786 µM) | MIC PM 10775 [8]: ≤ 0.1 µg/mL | MIC PM 6391 [9]: 0.4 µg/mL (≈ 0.786 µM) | MIC MH 12587 [10]: 1.6 µg/mL (≈ 3.15 µM)

CC(C)(O)[C@H](NC(=O)c1ccc(C#Cc2ccc(CNCc3ccccn3)cc2)cc1)C(=O)NO [Compound 230]
MIC MH 13093 [1]: 0.8 µg/mL (≈ 1.69 µM) | MIC PM 6267 [2]: ≤ 0.1 µg/mL | MIC MH 6374 [3]: 0.4 µg/mL (≈ 0.846 µM) | MIC MH 13065 [4]: 0.8 µg/mL (≈ 1.69 µM) | MIC MH 6357 [5]: 0.8 µg/mL (≈ 1.69 µM) | MIC MH 10720 [6]: ≤ 0.1 µg/mL | MIC PM 12080 [7]: ≤ 0.1 µg/mL | MIC PM 10775 [8]: ≤ 0.1 µg/mL | MIC PM 6391 [9]: ≤ 0.1 µg/mL | MIC MH 12587 [10]: 1.6 µg/mL (≈ 3.39 µM)

CSC(C)(C)[C@H](NC(=O)c1ccc(C#Cc2ccc(CNCc3nccs3)cc2)cc1)C(=O)NO [Compound 254]
MIC MH 13093 [1]: 0.8 µg/mL (≈ 1.57 µM) | MIC PM 6267 [2]: ≤ 0.1 µg/mL | MIC MH 6374 [3]: 1.6 µg/mL (≈ 3.15 µM) | MIC MH 13065 [4]: 0.8 µg/mL (≈ 1.57 µM) | MIC MH 6357 [5]: 0.8 µg/mL (≈ 1.57 µM) | MIC MH 10720 [6]: 0.2 µg/mL (≈ 0.393 µM) | MIC PM 12080 [7]: ≤ 0.1 µg/mL | MIC PM 10775 [8]: ≤ 0.1 µg/mL | MIC PM 6391 [9]: 0.4 µg/mL (≈ 0.786 µM) | MIC MH 12587 [10]: 1.6 µg/mL (≈ 3.15 µM)

O=C(N[C@@H](CO)C(=O)NO)c1ccc(C#Cc2ccc(CNC3CCC3)cc2)cc1 [Compound 147]
MIC MH 13093 [1]: 6.3 µg/mL (≈ 15.5 µM) | MIC PM 6267 [2]: 0.4 µg/mL (≈ 0.982 µM) | MIC MH 6374 [3]: 6.3 µg/mL (≈ 15.5 µM) | MIC MH 13065 [4]: 6.3 µg/mL (≈ 15.5 µM) | MIC MH 6357 [5]: 3.1 µg/mL (≈ 7.61 µM) | MIC MH 10720 [6]: 3.1 µg/mL (≈ 7.61 µM) | MIC PM 12080 [7]: 1.6 µg/mL (≈ 3.93 µM) | MIC PM 10775 [8]: ≤ 0.1 µg/mL | MIC PM 6391 [9]: 1.6 µg/mL (≈ 3.93 µM) | MIC MH 12587 [10]: 6.3 µg/mL (≈ 15.5 µM)

CNCc1ccc(C#Cc2ccc(C(=O)N[C@H](C(=O)NO)C(C)C)cc2)cc1 [Compound 207]
MIC MH 13093 [1]: 12.5 µg/mL (≈ 32.9 µM) | MIC PM 6267 [2]: 0.2 µg/mL (≈ 0.527 µM) | MIC MH 6374 [3]: 12.5 µg/mL (≈ 32.9 µM) | MIC MH 13065 [4]: 6.3 µg/mL (≈ 16.6 µM) | MIC MH 6357 [5]: 12.5 µg/mL (≈ 32.9 µM) | MIC MH 10720 [6]: 3.1 µg/mL (≈ 8.17 µM) | MIC PM 12080 [7]: 0.8 µg/mL (≈ 2.11 µM) | MIC PM 10775 [8]: ≤ 0.1 µg/mL | MIC PM 6391 [9]: 0.8 µg/mL (≈ 2.11 µM) | MIC MH 12587 [10]: 12.5 µg/mL (≈ 32.9 µM)

CON=C(C)[C@H](NC(=O)c1ccc(C#Cc2ccc(CN3CCCC3)cc2)cc1)C(=O)NO [Compound 384]
MIC MH 13093 [1]: 6.3 µg/mL (≈ 14 µM) | MIC PM 6267 [2]: 12.5 µg/mL (≈ 27.9 µM) | MIC MH 6374 [3]: 12.5 µg/mL (≈ 27.9 µM) | MIC MH 13065 [4]: 6.3 µg/mL (≈ 14 µM) | MIC MH 6357 [5]: 6.3 µg/mL (≈ 14 µM) | MIC MH 10720 [6]: 3.1 µg/mL (≈ 6.91 µM) | MIC PM 12080 [7]: 1.6 µg/mL (≈ 3.57 µM) | MIC PM 10775 [8]: 3.1 µg/mL (≈ 6.91 µM) | MIC PM 6391 [9]: 0.4 µg/mL (≈ 0.892 µM) | MIC MH 12587 [10]: 1.6 µg/mL (≈ 3.57 µM)

Cc1cnc(CNCc2ccc(C#Cc3ccc(C(=O)N[C@H](C(=O)NO)C(C)(C)O)cc3)s2)o1 [Compound 299]
MIC MH 13093 [1]: 0.4 µg/mL (≈ 0.829 µM) | MIC PM 6267 [2]: 0.4 µg/mL (≈ 0.829 µM) | MIC MH 6374 [3]: 0.4 µg/mL (≈ 0.829 µM) | MIC MH 13065 [4]: 0.4 µg/mL (≈ 0.829 µM) | MIC MH 6357 [5]: 0.2 µg/mL (≈ 0.414 µM) | MIC MH 10720 [6]: ≤ 0.1 µg/mL | MIC PM 12080 [7]: 0.4 µg/mL (≈ 0.829 µM) | MIC PM 10775 [8]: ≤ 0.1 µg/mL | MIC PM 6391 [9]: ≤ 0.1 µg/mL | MIC MH 12587 [10]: 0.8 µg/mL (≈ 1.66 µM)

CON=C(C)[C@H](NC(=O)c1ccc(C#Cc2ccc(CNCc3ccccn3)cc2)cc1)C(=O)NO [Compound 390]
MIC MH 13093 [1]: 0.8 µg/mL (≈ 1.65 µM) | MIC PM 6267 [2]: 3.1 µg/mL (≈ 6.38 µM) | MIC MH 6374 [3]: 1.6 µg/mL (≈ 3.3 µM) | MIC MH 13065 [4]: 0.8 µg/mL (≈ 1.65 µM) | MIC MH 6357 [5]: 0.4 µg/mL (≈ 0.824 µM) | MIC MH 10720 [6]: 0.8 µg/mL (≈ 1.65 µM) | MIC PM 12080 [7]: 0.2 µg/mL (≈ 0.412 µM) | MIC PM 10775 [8]: 0.4 µg/mL (≈ 0.824 µM) | MIC PM 6391 [9]: ≤ 0.1 µg/mL | MIC MH 12587 [10]: 0.2 µg/mL (≈ 0.412 µM)
